Experimental data published in patent publication US7351397B2, “Stabilization of radiopharmaceutical compositions using hydrophilic 6-hydroxy chromans” (CIS bio international, priority 2000, dated 2008).

Columns and labels:
Type in all cases: physicochemical
[1] = Radiolabelling yield (RCP) by reversed phase HPLC of 99mTc-labelled monoamine, diamide, single thiol peptide chelator with and without Trolox
Experimental: Lyophilized kit “placebo” vials were prepared containing sodium glucoheptonate dihydrate, edetate disodium dihydrate, and stannous chloride dihydrate at the concentrations set forth in Table 1 (control formulation).
The peptide chelator was radiolabelled with ^99mTc in the presence and absence of Trolox®. The peptide chelator was dissolved in water at a concentration of 1 mg/mL, and 50 μg (50 μL) of the peptide was added to each of three placebo vials. Ethanol and Trolox® were added to the control and Trolox®, preparations as described in Example 11. In addition, 100 μL phosphate buffered saline (PBS) was added to each preparation.

[2] = Radiolabelling yield (RCP) by reversed phase HPLC of 99mTc-labelled glycoprotein IIb/IIIa receptor-binding peptide with and without Trolox
Experimental: Lyophilized kit vials were prepared containing the peptide (50 μg), sodium glucoheptonate dihydrate (10 mg), stannous chloride dihydrate (50 μg), and edetate disodium dihydrate (100 μg). The formulation was adjusted to pH 7.4 prior to lyophilization.
The lyophilized kits were radiolabelled with ^99mTc in the presence and absence of Trolox®. To the Trolox® preparation was added 2 mg Trolox® in 100 μL ethanol and 100 μL saline. The ethanol was necessary to aid in the dissolution of the Trolox®. To the control preparation was added 100 μL ethanol and 100 μL saline to account for the additional saline or ethanol added with the Trolox.

[3] = Radiolabelling yield (RCP) by reversed phase HPLC of 99mTc-labelled depreotide from lyophilized kits with Trolox; conditions: prepared from formulated kits
Experimental: Lyophilized kit vials were prepared containing depreotide, Trolox®, and other components as described in Table 3.
Some of the formulations were also radiolabelled in a heated preparation (heat in a boiling water bath for 10 minutes).

[4] = Radiolabelling yield (RCP) by reversed phase HPLC of 99mTc-labelled bisamide bisthiol non-peptide chelator with and without Trolox
Description: The non-peptide chelator was radiolabelled with ^99mTc in the presence and absence of Trolox® using the placebo vial heated preparation procedure as described in Example 4.

[5] = Radiolabelling yield (RCP) by reversed phase HPLC of 99mTc depreotide from lyophilized kits after accelerated temperature (40° C.) storage; conditions: lyophilized kits thermally stressed by accelerated temperature storage
Experimental: Lyophilized kits were prepared containing depreotide, Trolox®, and other components as described in Table 5. […] The kits were stored for one week at 40° C. Some kits were also stored at −10° C. as controls.

[6] = Radiolabelling yield (RCP) by reversed phase HPLC of 99mTc-labelled depreotide from lyophilized kits with gentisic acid; conditions: when included in formulated kits
Experimental: Lyophilized kit vials were prepared containing depreotide, GA, and other components as described in Table 1. Formulations were adjusted to pH 7.4 or 8.5 (as noted) prior to lyophilization.

Cc1c(C)c2c(c(C)c1O)CCC(C)(C(=O)O)O2 (stereo not drawn) [Trolox®, 6-hydroxy-2,5,7,8-tetramethylchroman-2-carboxylic acid]
effect on radiolabelling yield and stability of 99mTc-labelled peptide chelator [1]: increases the radiolabelling yield and the stability | effect on radiolabelling yield and stability of 99mTc-peptide [2]: increases the radiolabelling yield and the stability | effect on radiolabelling yield and stability of 99mTc depreotide [3]: increases the radiolabelling yield and the stability | effect on radiolabelling yield and stability of 99mTc-labelled non-peptide chelator [4]: increases the radiolabelling yield and the stability | stabilization of 99mTc-depreotide [5]: stabilizes

O=C(O)c1cc(O)ccc1O [gentisic acid, Gentisic acid]
effect on radiolabelling yield and stability of 99mTc-depreotide [6]: decreases the radiochemical purity
